Measured values from patent US20250268903A1, “RXFP1 AGONISTS” (BRISTOL-MYERS SQUIBB COMPANY, priority 2021, published 2025).

Each molecule was assayed against T1, human RXFP1 (Homo sapiens, UniProt Q9HBX9) (assay: hRXFP1 HEK293 cAMP assay (HTRF)). Settings: HEK293 cells stably expressing human RXFP1, 30 min at room temperature.
T1 construct: expressed in transfected cells
T1 sequence (Q9HBX9 1-757): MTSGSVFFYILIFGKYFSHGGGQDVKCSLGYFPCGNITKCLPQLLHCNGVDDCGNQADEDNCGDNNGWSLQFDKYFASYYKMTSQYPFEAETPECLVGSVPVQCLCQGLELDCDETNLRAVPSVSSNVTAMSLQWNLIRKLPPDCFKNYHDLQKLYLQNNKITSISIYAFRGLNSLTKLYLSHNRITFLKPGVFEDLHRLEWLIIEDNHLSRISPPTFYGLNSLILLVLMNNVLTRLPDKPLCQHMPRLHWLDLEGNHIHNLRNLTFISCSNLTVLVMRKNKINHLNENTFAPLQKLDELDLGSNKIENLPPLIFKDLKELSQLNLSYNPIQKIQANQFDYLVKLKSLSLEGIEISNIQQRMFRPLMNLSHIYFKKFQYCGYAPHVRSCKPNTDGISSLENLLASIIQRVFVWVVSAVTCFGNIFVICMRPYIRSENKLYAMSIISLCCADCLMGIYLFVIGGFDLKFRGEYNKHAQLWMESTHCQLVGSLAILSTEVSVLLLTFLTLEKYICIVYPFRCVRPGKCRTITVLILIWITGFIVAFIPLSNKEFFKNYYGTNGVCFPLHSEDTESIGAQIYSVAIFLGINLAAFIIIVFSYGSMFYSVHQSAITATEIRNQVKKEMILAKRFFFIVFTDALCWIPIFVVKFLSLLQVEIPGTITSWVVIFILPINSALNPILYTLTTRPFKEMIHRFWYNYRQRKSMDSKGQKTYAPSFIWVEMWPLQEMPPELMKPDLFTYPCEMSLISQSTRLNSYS
Assay type: cell-based
How it was run: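 Intracellular cAMP was read by HTRF, with potency fitted to a 4-parameter logistic curve. Compound exposure (0.010 nM–50 μM final, 2% DMSO) lasted 30 min at room temperature. Cells were hRXFP1-HEK293 at 1500 per well in IBMX-containing (0.5 mM) HEPES-buffered HBSS.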

Row | Molecule | EC50 [nM]
1 | COc1ccc(C2CC(CO)C2)cc1C(=O)N[C@H]1[C@@H](C(=O)Nc2ccc(F)c(C(F)(F)F)c2)[C@H]2CC[C@@H]1/C2=C\C1CC1 (stereo partly drawn) [Example 333, (1R,2S,3R,4R,7Z)-7-(cyclopropyl-methylidene)-N-[4-fluoro-3-(trifluoromethyl)phenyl]-3-[5-[3-(hydroxymethyl)cyclobutyl]-2-methoxybenzamido} bicyclo[2.2.1]heptane-2-carboxamide] | 62.3
2 | COc1ccc(C2CC3CC(CO)CC32)cc1C(=O)N[C@H]1[C@@H](C(=O)Nc2ccc(F)c(C(F)(F)F)c2)[C@H]2CC[C@@H]1/C2=C\C1CC1 (single isomer, unassigned) [Example 349] | 60.9
3 | COc1ccc(C2CC3CC(CO)CC32)cc1C(=O)N[C@H]1[C@@H](C(=O)Nc2ccc(F)c(C(F)(F)F)c2)[C@H]2CC[C@@H]1/C2=C\C1CC1 (single isomer, unassigned) [Example 351] | 27.7
4 | COc1ccc(C(=O)N(C)C(C)(C)C)cc1C(=O)N[C@H]1[C@@H](C(=O)Nc2ccc(F)c(C(F)(F)F)c2)[C@H]2CC[C@@H]1/C2=C\C1CC1 [Example 241, N1-tert-butyl-N3-[(1R,2R,3S,4R,7Z)-7-(cyclopropyl-methylidene)-3-{[4-fluoro-3-(trifluoromethyl)phenyl]carbamoyl}bicyclo[2.2.1]heptan-2-yl]-4-methoxy-N1-methylbenzene-1,3-dicarboxamide] | 69.8
5 | (1R,4R,7Z)-7- (cyclopentyl- methylidene)- N-[4-fluoro-3- (trifluoromethyl) phenyl]-3-[5-(3- hydroxy-3- methylbutyl)-2- methoxybenzamido] bicyclo[2.2.1] heptane-2- carboxamide [Example 268] | 29.6
6 | COc1ccc(CCCO)cc1C(=O)N[C@@H]1C2CCC(/C2=C/C2CCC2)[C@@H]1C(=O)Nc1ccc(F)c(C(F)(F)F)c1 (stereo partly drawn) [Example 86, (2S,3R,7Z)-7-(cyclobutylmethyli-dene)-N-[4-fluoro-3-(trifluoromethyl)phe-nyl]-3-[5-(3-hydroxypropyl)-2-methoxybenzamido] bicyclo[2.2.1]heptane-2-carboxamide] | 45
7 | COc1ccc(C2CC2C(=O)N2CCC(O)CC2)cc1C(=O)N[C@H]1[C@@H](C(=O)Nc2ccc(F)c(C(F)(F)F)c2)[C@H]2CC[C@@H]1/C2=C\C1CC1 (single isomer, unassigned) [Example 324] | 4.95
8 | COc1ccc(CCCO)cc1C(=O)NC1C2CCC(/C2=C/C2CCOCC2)[C@@H]1C(=O)Nc1ccc(F)c(C(F)(F)F)c1 (stereo partly shown) [Example 165, (7Z)-N-[4-fluoro-3-(trifluoromethyl)phe-nyl]-3-[5-(3-hydroxypropyl)-2-methoxybenzamido]-7-[(oxan-4-yl)methylidene]bicy-clo[2.2.1]heptane-2-carboxamide] | 218
9 | 4-(3-{[(2R,3S,7Z)- 3-{[4-fluoro-3- (trifluoromethyl)phe- nyl]carbamoyl}-7- (2,2,2- trifluoroethylidene)bi- cyclo[2.2.1]heptan- 2-yl]carbamoyl}-4- methoxyphenyl)cyclo- hexyl N- phenylcarbamate [Example 54] | 158
10 | COc1ccc(S(=O)(=O)N2CC3CCC(C2)O3)cc1C(=O)N[C@H]1[C@@H](C(=O)Nc2ccc(F)c(C(F)(F)F)c2)[C@H]2CC[C@@H]1/C2=C\C(F)(F)F [Example 214, (1R,2S,3R,4R,7Z)-N-[4-fluoro-3-(trifluoromethyl)phenyl]-3-(2-methoxy-5-{8-oxa-3-azabicyclo[3.2.1]octane-3-sulfonyl}benzamido)-7-(2,2,2-trifluoroethylidene) bicyclo[2.2.1] heptane-2-carboxamide] | 272
11 | COc1ccc(C(=O)N2CCCC(CO)C2)cc1C(=O)N[C@H]1[C@@H](C(=O)Nc2ccc(F)c(C(F)(F)F)c2)[C@H]2CC[C@@H]1/C2=C\C1CC1 (stereo partly drawn) [Example 233, (1R,2S,3R,4R,7Z)-7-(cyclopropyl-methylidene)-N-[4-fluoro-3-(trifluoromethyl)phenyl]-3-[5-[3-(hydroxymethyl)piperidine-1-carbonyl]-2-methoxybenzamido} bicyclo[2.2.1] heptane-2-carboxamide] | 65.7
12 | COc1ccc(C(=O)N2CCC3(CC2)COC3)cc1C(=O)N[C@H]1[C@@H](C(=O)Nc2ccc(F)c(C(F)(F)F)c2)[C@H]2CC[C@@H]1/C2=C\C1CC1 [Example 246, (1R,2S,3R, 4R,7Z)-7-(cyclopropyl-methylidene)-N-[4-fluoro-3-(trifluoromethyl)phenyl]-3-(2-methoxy-5-{2-oxa-7-azaspiro[3.5]nonane-7-carbonyl}benzamido) bicyclo[2.2.1] heptane-2-carboxamide] | 13.7

Results, then the molecule that gave them:

Row | EC50 [nM] | Molecule
13 | 372 | COc1ccc(CCC(O)C(F)(F)F)cc1C(=O)N[C@@H]1C2CCC(/C2=C/C(F)(F)F)[C@@H]1C(=O)Nc1ccc(F)c(C(F)(F)F)c1 (stereo partly drawn) [Example 100, (2S,3R,7Z)-N-[4-fluoro-3-(trifluoromethyl)phe-nyl]-3-[2-methoxy-5-(4,4,4-trifluoro-3-hydroxybutyl)benza-mido]-7-(2,2,2-trifluoroethylidene)bi-cyclo[2.2.1]heptane-2-carboxamide]
14 | 125 | COc1ccc(CCC(C)(C)O)cc1C(=O)N[C@@H]1C2CCC(/C2=C/C(F)(F)F)[C@@H]1C(=O)Nc1ccc(F)c(C(F)(F)F)c1 (stereo partly shown) [Example 82]
15 | 464 | COC(=O)c1ccc(F)cc1Cc1ccc(OC)c(C(=O)NC2C3CCC(/C3=C/C(F)(F)F)[C@@H]2C(=O)Nc2ccc(F)c(C(F)(F)F)c2)c1 (stereo partly drawn) [Example 156, methyl 4-fluoro-2-[(3-{[(2R,3S,7Z)-3-{[4-fluoro-3-(trifluoromethyl)phe-nyl]carbamoyl}-7-(2,2,2-trifluoroethylidene)bi-cyclo[2.2.1]heptan-2-yl]carbamoyl}-4-methoxyphenyl)meth-yl]benzoate]
16 | 77.9 | COc1ccc(/C=C/C(=O)N2CCCC2)cc1C(=O)N[C@H]1[C@@H](C(=O)Nc2ccc(F)c(C(F)(F)F)c2)[C@H]2CC[C@@H]1/C2=C\C(F)(F)F [Example 303, (1R,2S,3R,4R,7Z)-N-[4-fluoro-3-(trifluoromethyl)phenyl]-3-{2-methoxy-5-[(1E)-3-oxo-3-(pyrrolidin-1-yl)prop-1-en-1-yl]benzamido}-7-(2,2,2-trifluoroethylidene) bicyclo[2.2.1] heptane-2-carboxamide]
17 | 280 | COc1ccc(CCCCC(F)(F)F)cc1C(=O)NC1C2CCC(/C2=C/C(F)(F)F)[C@@H]1C(=O)Nc1ccc(F)c(C(F)(F)F)c1 (stereo partly shown) [Example 186, (7Z)-N-[4-fluoro-3-(trifluoromethyl)phe-nyl]-3-[2-methoxy-5-(5,5,5-trifluoropentyl)benza-mido]-7-(2,2,2-trifluoroethylidene)bi-cyclo[2.2.1]heptane-2-carboxamide]
18 | 355 | COc1ccc(CC2CCOCC2)cc1C(=O)NC1C2CCC(/C2=C/C(F)(F)F)[C@@H]1C(=O)Nc1ccc(F)c(C(F)(F)F)c1 (stereo partly shown) [Example 178, (7Z)-N-[4-fluoro-3-(trifluoromethyl)phe-nyl]-3-{2-methoxy-5-[(oxan-4-yl)methyl]benzamido}-7-(2,2,2-trifluoroethylidene)bi-cyclo[2.2.1]heptane-2-carboxamide]
19 | 2810 | COc1ccc(CCCNC2CCC2)cc1C(=O)N[C@@H]1C2CCC(/C2=C/C(F)(F)F)[C@@H]1C(=O)Nc1ccc(F)c(C(F)(F)F)c1 (stereo partly drawn) [Example 122, (2S,3R,7Z)-3-{5-[3-(cyclobutylamino)pro-pyl]-2-methoxybenzamido}-N-[4-fluoro-3-(trifluoromethyl)phe-nyl]-7-(2,2,2-trifluoroethylidene)bi-cyclo[2.2.1]heptane-2-carboxamide]
20 | 1070 | COc1ccc(CCCN2CCOCC2)cc1C(=O)N[C@@H]1C2CCC(/C2=C/C(F)(F)F)[C@@H]1C(=O)Nc1ccc(F)c(C(F)(F)F)c1 (stereo partly drawn) [Example 121, (2S,3R,7Z)-N-[4-fluoro-3-(trifluoromethyl)phe-nyl]-3-{2-methoxy-5-[3-(morpholin-4-yl)propyl]benzamido}-7-(2,2,2-trifluoroethylidene)bi-cyclo[2.2.1]heptane-2-carboxamide]
21 | 962 | COc1ccc(CO)cc1C(=O)N[C@H]1[C@@H](C(=O)Nc2ccc(F)c(C(F)(F)F)c2)[C@H]2CC[C@@H]1/C2=C\C(F)(F)F [Example 10, (1R,2S,3R,4R,Z)—N-(4-fluoro-3-(trifluoromethyl)phenyl)-3-(5-(hydroxymethyl)-2-methoxybenzamido)-7-(2,2,2-trifluoroethylidene) bicyclo[2.2.1]heptane-2-carboxamide]
22 | 560 | COc1ccc(S(=O)(=O)Cc2ccccc2)cc1C(=O)N[C@@H]1C2CCC(/C2=C/C(F)(F)F)[C@@H]1C(=O)Nc1ccc(F)c(C(F)(F)F)c1 (stereo partly drawn) [Example 3, (2S,3R,7Z)-N-[4-fluoro-3-(trifluoromethyl)phe-nyl]-3-(2-methoxy-5-phenylmethanesulfo-nylbenzamido)-7-(2,2,2-trifluoroethylidene)bi-cyclo[2.2.1]heptane-2-carboxamide]
